Patent US20180360801A1, “NEUROPROTECTIVE COMPOSITIONS AND THEIR USE” (priority 2017, published 2018)

Test: Blood glucose by glucometer after 4 weeks of treatment
Assay type: in vivo
Details: rats, streptozotocin 55 mg/kg ip, n=12, p<0.05
Experimental: In this study, we used streptozotocin (55 mg/kg) to induce hyperglycemia. We measured the levels of glucose using standardized glucometer after 4 weeks of treatment. Based on the literature, the current animal model represents severe hyperglycemia.

CN(N=O)C(=O)N[C@H]1C(O)O[C@H](CO)[C@@H](O)[C@@H]1O (mixture of isomers) [Streptozotocin, streptozotocin]
increase of levels of glucose as compared to the controls: 445.5%
